In ChEMBL document CHEMBL1201862, “PubChem BioAssay data set” (2004):
Values belong to the compound of their own block, whether it stands above or below them. Calls of active or inactive are those of the source.

What was measured:
[1] = molecular target: T1, Sentrin-specific protease 7 (Homo sapiens, UniProt Q9BQF6); assay: inhibition of human SENP7 cleavage activity – biochemical, luminescence, SAR follow-up (AID 504497); assay type: functional
T1 sequence (Q9BQF6 whole entry): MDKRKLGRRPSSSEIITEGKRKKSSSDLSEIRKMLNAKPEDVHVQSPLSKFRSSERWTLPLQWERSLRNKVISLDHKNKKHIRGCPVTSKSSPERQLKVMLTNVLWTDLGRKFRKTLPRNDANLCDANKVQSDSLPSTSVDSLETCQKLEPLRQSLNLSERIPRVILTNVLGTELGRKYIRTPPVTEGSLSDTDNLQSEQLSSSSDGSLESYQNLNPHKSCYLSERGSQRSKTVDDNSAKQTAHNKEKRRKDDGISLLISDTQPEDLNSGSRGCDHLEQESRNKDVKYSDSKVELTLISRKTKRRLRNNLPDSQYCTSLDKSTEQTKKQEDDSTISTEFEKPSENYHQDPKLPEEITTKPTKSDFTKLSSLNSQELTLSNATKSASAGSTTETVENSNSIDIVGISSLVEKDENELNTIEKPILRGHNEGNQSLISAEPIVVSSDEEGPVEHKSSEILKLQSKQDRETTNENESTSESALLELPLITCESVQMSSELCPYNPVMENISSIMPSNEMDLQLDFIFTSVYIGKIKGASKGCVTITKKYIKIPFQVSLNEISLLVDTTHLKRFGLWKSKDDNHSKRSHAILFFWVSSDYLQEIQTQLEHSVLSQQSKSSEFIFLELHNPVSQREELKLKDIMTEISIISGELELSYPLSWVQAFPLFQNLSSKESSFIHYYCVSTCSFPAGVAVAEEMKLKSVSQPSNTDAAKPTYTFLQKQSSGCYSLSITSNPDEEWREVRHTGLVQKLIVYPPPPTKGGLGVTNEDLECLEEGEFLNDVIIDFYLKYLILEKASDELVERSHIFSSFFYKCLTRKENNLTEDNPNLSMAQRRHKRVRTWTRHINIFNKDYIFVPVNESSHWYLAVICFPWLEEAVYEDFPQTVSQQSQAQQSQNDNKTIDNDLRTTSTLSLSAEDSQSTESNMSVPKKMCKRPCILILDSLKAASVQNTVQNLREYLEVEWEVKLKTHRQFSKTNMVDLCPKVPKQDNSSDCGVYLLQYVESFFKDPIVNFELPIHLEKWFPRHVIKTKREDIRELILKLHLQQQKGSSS

[2] = molecular target: T2, Sentrin-specific protease 8 (Homo sapiens, UniProt Q96LD8); assay: inhibition of human SENP8 cleavage activity – biochemical, luminescence, SAR follow-up (AID 504501); assay type: functional
T2 sequence (Q96LD8 whole entry): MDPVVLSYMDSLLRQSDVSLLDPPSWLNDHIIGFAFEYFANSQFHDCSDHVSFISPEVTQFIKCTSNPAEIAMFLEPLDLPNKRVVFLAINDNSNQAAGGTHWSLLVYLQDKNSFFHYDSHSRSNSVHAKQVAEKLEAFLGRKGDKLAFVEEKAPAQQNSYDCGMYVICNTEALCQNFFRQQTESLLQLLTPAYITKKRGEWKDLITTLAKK

[3] = molecular target: T3, Caspase-3 (Homo sapiens, UniProt P42574); assay: SAR Analysis of small molecule inhibitors of Sentrin-specific proteases (SENPs) using a Caspase-3 Selectivity assay. [Related pubchem assays (depositor defined):AID2540, AID2599, AID434973, AID489001]; assay type: functional
T3 sequence (P42574 whole entry): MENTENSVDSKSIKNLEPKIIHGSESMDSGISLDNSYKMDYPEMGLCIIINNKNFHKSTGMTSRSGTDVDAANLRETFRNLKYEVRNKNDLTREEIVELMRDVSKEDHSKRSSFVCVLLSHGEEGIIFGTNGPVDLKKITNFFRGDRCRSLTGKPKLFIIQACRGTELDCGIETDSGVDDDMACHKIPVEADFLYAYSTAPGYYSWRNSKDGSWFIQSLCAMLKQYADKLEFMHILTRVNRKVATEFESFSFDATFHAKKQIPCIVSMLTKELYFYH

[4] = molecular target: T4, Sentrin-specific protease 6 (Homo sapiens, UniProt Q9GZR1); assay: SAR Analysis of small molecule inhibitors of Sentrin-specific protease 6 (SENP6) using a Luminescent assay. [Related pubchem assays (depositor defined):AID2582, AID2599]; assay type: functional
T4 sequence (Q9GZR1 whole entry): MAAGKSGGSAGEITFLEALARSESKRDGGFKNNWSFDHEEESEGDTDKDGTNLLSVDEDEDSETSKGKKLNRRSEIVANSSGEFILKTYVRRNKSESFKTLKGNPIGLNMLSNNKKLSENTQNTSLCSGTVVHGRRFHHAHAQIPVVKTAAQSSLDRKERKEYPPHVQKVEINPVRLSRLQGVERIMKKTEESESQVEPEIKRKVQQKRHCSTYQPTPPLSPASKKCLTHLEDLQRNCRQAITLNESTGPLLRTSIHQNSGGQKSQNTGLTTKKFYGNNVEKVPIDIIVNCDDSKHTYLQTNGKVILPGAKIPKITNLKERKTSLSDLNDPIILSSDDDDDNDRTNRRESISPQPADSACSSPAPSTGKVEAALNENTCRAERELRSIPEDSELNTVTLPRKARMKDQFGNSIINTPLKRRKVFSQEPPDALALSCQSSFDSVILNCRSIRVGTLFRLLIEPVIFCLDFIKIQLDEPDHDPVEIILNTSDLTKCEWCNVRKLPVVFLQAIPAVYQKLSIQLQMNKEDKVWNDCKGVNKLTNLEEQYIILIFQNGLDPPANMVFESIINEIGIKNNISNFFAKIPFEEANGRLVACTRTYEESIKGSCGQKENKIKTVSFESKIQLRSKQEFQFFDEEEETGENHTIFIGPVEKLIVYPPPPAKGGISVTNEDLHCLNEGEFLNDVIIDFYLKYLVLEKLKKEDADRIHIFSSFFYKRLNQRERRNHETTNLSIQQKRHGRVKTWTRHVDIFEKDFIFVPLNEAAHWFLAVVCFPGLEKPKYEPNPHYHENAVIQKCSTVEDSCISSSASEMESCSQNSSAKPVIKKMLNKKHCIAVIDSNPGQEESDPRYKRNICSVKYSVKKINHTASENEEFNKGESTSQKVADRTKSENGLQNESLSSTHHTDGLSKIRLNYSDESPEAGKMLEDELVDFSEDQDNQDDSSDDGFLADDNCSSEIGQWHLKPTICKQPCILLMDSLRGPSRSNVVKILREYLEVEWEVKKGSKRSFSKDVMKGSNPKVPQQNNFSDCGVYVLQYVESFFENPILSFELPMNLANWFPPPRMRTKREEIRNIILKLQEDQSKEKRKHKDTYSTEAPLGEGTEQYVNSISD

[5] = molecular target: T5, Cyclin-dependent kinase 5/CDK5 activator 1 (Homo sapiens, UniProt Q00535); assay: blockade of human CDK5 activity – biochemical, cherry-picked samples, set 2, dose response (AID 504545)
T5 sequence (Q00535 whole entry): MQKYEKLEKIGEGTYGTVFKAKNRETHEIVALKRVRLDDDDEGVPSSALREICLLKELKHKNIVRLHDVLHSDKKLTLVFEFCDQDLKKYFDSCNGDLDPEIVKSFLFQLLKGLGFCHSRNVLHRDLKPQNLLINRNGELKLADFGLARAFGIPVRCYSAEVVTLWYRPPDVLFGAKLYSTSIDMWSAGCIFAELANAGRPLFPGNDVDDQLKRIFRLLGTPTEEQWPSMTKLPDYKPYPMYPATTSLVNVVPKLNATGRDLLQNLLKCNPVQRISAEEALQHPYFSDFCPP
T5 sequence (Q15078 whole entry, further chain): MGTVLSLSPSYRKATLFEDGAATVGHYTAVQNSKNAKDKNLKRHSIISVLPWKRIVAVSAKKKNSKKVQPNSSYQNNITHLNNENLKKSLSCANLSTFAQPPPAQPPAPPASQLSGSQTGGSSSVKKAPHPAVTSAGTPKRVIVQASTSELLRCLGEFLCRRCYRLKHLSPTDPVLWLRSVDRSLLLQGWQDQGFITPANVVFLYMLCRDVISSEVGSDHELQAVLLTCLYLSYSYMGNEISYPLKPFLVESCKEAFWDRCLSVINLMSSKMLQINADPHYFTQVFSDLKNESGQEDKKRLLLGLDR

[6] = molecular target: Glycogen synthase kinase-3 beta (Homo sapiens, UniProt P49841); assay: Inhibition of Human GSK-3 beta Activity Measured in Biochemical System Using Microfluidics - 2063-05_Inhibitor_Dose_DryPowder_Activity_Set2. [Related pubchem assays (depositor defined):AID2709]
Sequence of Glycogen synthase kinase-3 beta (P49841 whole entry): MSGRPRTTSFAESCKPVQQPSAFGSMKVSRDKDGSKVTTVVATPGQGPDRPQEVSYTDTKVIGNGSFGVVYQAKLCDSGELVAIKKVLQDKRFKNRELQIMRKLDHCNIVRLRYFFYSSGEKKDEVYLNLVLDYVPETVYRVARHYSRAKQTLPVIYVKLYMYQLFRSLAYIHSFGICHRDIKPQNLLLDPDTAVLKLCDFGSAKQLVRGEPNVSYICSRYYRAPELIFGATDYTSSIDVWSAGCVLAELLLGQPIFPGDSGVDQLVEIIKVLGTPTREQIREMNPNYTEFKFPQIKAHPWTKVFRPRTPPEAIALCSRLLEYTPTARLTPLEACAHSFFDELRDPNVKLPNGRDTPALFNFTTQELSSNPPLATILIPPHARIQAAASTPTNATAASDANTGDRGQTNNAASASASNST

[7] = molecular target: Mitogen-activated protein kinase 10 (Homo sapiens, UniProt P53779); assay: Dose response biochemical screening assay for inhibitors of c-Jun N-Terminal Kinase 3 (JNK3). [Related pubchem assays: 746 ]
Sequence of Mitogen-activated protein kinase 10 (P53779 whole entry, the tested form may be a part): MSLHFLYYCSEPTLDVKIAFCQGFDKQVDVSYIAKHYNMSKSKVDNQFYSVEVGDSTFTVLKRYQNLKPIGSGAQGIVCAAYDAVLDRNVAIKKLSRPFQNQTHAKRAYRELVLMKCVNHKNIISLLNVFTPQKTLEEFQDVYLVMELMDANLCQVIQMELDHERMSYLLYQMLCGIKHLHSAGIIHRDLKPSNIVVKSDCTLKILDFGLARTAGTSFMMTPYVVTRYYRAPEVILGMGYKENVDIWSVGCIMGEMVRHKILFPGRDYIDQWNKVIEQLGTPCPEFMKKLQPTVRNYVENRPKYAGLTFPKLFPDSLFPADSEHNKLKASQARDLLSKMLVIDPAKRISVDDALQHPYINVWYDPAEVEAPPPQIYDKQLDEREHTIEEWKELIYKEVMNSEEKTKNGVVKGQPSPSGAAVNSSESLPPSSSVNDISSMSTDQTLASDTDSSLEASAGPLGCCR

[8] = molecular target: Photoreceptor-specific nuclear receptor (Homo sapiens, UniProt Q9Y5X4); assay type: functional, cell-based;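 note: CHO-S cells with Gal4-NCOR and VP16-NR2E3 two-hybrid luciferase reporter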
Sequence of Photoreceptor-specific nuclear receptor (Q9Y5X4 whole entry, the tested form may be a part): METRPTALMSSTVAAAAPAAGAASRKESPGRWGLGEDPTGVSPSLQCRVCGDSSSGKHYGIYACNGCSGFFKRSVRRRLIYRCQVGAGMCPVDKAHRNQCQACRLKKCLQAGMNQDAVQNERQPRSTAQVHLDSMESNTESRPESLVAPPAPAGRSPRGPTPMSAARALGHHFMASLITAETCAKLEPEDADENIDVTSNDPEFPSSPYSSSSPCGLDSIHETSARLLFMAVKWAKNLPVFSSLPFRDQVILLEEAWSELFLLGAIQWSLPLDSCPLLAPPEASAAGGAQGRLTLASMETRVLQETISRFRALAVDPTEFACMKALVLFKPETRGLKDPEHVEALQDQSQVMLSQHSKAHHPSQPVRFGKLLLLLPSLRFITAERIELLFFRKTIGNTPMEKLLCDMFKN

[9] = molecular target: Glycogen synthase kinase-3 alpha (Homo sapiens, UniProt P49840); assay: Inhibition of Human GSK-3 alpha Activity Measured in Biochemical System Using Microfluidics - 2063-06_Inhibitor_Dose_DryPowder_Activity_Set2. [Related pubchem assays (depositor defined):AID2709]
Sequence of Glycogen synthase kinase-3 alpha (P49840 whole entry): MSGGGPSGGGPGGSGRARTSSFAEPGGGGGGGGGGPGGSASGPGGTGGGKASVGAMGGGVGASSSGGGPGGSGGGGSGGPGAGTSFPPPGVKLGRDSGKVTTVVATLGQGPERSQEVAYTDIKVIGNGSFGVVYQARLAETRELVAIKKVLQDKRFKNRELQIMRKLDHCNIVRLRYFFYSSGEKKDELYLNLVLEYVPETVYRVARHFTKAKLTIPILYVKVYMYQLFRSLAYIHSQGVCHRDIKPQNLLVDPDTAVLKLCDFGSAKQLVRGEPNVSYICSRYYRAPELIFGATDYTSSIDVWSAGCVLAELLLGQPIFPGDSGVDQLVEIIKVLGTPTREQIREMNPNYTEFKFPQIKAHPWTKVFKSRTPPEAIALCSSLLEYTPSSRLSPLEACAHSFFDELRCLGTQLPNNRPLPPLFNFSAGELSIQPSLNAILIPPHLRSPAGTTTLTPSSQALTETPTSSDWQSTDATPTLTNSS

[10] = molecular target: T5, Cyclin-dependent kinase 5/CDK5 activator 1; assay: human CDK5 activity blockade – biochemical, microfluidic mobility shift, dry powder, selectivity assay for GSK-3 alpha inhibitor project, dose response (AID 588430)
[11] = system: Candida albicans; assay: fluconazole-resistant Candida strain growth inhibitors – CaCi-8 strain, dry powder, set 4, dose response (AID 488950); assay type: functional, organism-based
[12] = system: Candida albicans; assay: resistant Candida growth with fluconazole co-treatment – CaCi-8 strain, Alamar Blue, dry powder, set 2, dose response (AID 488909); assay type: functional, organism-based
[13] = system: Candida albicans; assay: C. albicans growth inhibition with fluconazole – CaCi-2 strain, Alamar Blue, dry powder, set 4, dose response (AID 488943); assay type: functional, organism-based
[14] = system: NIH3T3; assay: NIH-3T3 viability with fluconazole co-treatment – cell-based, Alamar Blue, dry powder, set 2, cytotoxicity control for antifungal resistance reversal project, dose response (AID 488911); assay type: functional; details: Mus musculus
[15] = system: Candida albicans; assay: single-agent toxicity toward C. albicans – CaCi-2 strain, no fluconazole, dry powder, set 4, counter-screen for reversing antifungal drug resistance, dose response (AID 488932); assay type: functional, organism-based

IC50 [1]: > 99 µM (inactive)
IC50 [3]: > 99 µM (inactive)
IC50 [4]: > 99 µM (inactive)
Compound: N#Cc1cccc(-c2nc(/C=C/c3ccc(F)cc3)no2)c1
IC50 [2]: > 99 µM (inactive)

AC50 [5]: 7.12 µM (active)
AC50 [6]: 0.252 µM (active)
IC50 [7]: > 31 µM (not active)
IC50 [8]: 0.0182 µM (active)
AC50 [9]: 0.288 µM (active)
AC50 [10]: 1.11 µM (active)
Compound: COc1cccc(C(=O)c2sc(NC(C)C)nc2N)c1

Compound: O=C(c1ccc(Cl)cc1)N1CCN(c2cccnc2)CC1
AC50 [11]: 20.4 µM (active)
AC50 [12]: 30.5 µM (active)
AC50 [13]: 25 µM (active)
AC50 [14]: 190 µM (active)
AC50 [15]: 43.5 µM (active)
